In publication PMC6917776, “Discovery of a chemical probe for PRDM9” (Nature Communications, 2019):
Where “and” joins values, the source holds several entries; their conditions need not be identical. Equal entries are not always repeated. Where two headings read alike, the source gives them in different places.

Columns and labels:
HEK293T cells = test: Cell growth, IncuCyte ZOOM cell number; format: cell-based; conditions: for Cell growth (Cell#): technical replicates
Experimental: HEK293T or MCF7 cells were seeded on 96-well plates and the following day treated with compounds for indicated time. Cell number was determined with Vybrant® DyeCycle™ Green using IncuCyte™ ZOOM live cell imaging device (Essen Bioscence) and analyzed with IncuCyte™ ZOOM (2015A) software.
(top graphs) and MCF7 cells (bottom graph). Cells were treated with compounds for 2 and 4 days or 5 days in case of MCF7. Cell number was measured using IncuCyte™ ZOOM live cell imaging device. The results are MEAN +/- SEM, n=3 (technical replicates). Source data are provided as a Source Data file.
(1 picture or pasted object on this page, not shown here)

[1] = system: NanoLuc-tagged PRDM9 (residues 135–285); test: NanoLuciferase thermal shift assay (NALTSA) in HEK293T cells; format: cell-based, human; conditions: for Normalized_Signal: Fig. 5a, independent replicates
Experimental: Cells treated with 0.1% DMSO alone were used as a control.
Shown is the mean ± SEM of three biological replicates. Boxes indicate the mean values. P-values calculated using an unpaired Welch’s two-tailed t-test, *p-value = 0.017. Source data are provided as a Source Data file.
NALTSA assays were performed as previously described. Briefly, HEK293T cells were plated in 6-well plates at a density of 1.5 × 10^5 cells/mL. The following day, cells were transfected with 2 µg of C-terminally NanoLuc®-tagged PRDM9 (residues 135–285) with X-tremeGene HP DNA Transfection Reagent (Roche). Cells were incubated for 24 h, trypsinized and resuspended at 1.5 × 10^5 cells/mL in 1x PBS supplemented with protease inhibitors. Cell suspensions were incubated at 37 °C with 10 μM compound or 0.1% DMSO alone for 1 h. Sixty microliters of cells was dispensed per well of a 96-well PCR plate followed by heating across a temperature gradient for 3 min on a Mastercycler® thermal cycler (Eppendorf). After heating, samples were transferred to a 96-well white plastic plate (Corning) and Glo® Substrate (Promega) was added to each well at 1:1000 final dilution. NanoLuciferase signal was read at 450 nm (filter: 450 nm/BP 80 nm) on a CLARIOstar microplate reader (Mandel).

PRDM7 = target: T1, PRDM7 (Homo sapiens, UniProt Q9NQW5); test: PRDM7 methyltransferase activity assay (3H-SAM scintillation proximity assay); format: biochemical
T1 sequence (Q9NQW5 1-492): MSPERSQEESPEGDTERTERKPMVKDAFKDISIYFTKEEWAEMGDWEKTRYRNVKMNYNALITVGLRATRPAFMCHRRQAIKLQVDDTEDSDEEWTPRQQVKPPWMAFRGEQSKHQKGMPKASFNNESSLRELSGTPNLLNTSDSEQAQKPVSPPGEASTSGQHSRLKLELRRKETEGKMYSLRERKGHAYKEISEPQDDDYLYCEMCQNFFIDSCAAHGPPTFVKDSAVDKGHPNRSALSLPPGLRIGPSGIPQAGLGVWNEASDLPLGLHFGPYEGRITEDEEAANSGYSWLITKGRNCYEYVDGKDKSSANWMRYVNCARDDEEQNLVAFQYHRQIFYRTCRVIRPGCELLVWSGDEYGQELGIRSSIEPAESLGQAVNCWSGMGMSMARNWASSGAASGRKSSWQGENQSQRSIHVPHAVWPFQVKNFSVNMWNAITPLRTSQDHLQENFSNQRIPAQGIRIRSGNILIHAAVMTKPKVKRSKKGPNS
Experimental: Methyltransferase activity assays for PRDM9 (amino acids: 195–415) were performed by monitoring the incorporation of tritium-labeled methyl group from ^3H-SAM to H3 (1–25) peptide using scintillation proximity assay (SPA). The enzymatic reactions were performed at 23 °C with 30 min incubation in 20 mM Tris-HCl (pH 7.5), 5 mM DTT, 0.01% Triton X-100 and 1% DMSO containing 71 μM of SAM (5 μM of ^3H-SAM), 4 μM of biotinylated H3 (1–25) peptide and 5 nM of PRDM9. For PRDM7, reactions were performed at 23 °C with 90 min incubation in 20 mM BTP pH 9.0, 5 mM DTT, 0.01% Triton X-100 and 1% DMSO containing 900 μM of SAM (5 μM of ^3H-SAM), 4 μM of biotinylated H3 (1–25) peptide and 100 nM of enzyme. Compounds were titrated from 3 nM to 50 μM and from 200 nM to 200 μM for PRDM9 and PRDM7, respectively. To stop the reactions, 10 μL of 7.5 M guanidine hydrochloride was added to 10 μL of reaction mixture, followed by 60 μL of buffer (20 mM Tris, pH 8.0), mixed, and transferred to a 384-well streptavidin coated Flash-plate. After mixing, the mixtures in Flash-plate were incubated for 2 h, and the CPM counts were measured using TopCount plate reader. All enzymatic reactions were performed in triplicate, and IC50 values were determined by fitting the data to Four Parameter Logistic equation using the GraphPad Prism software.

Structure (SMILES): COc1cc(OC)cc(-c2noc(N3CCN(C)C4(CCN(c5ccccc5)CC4)C3)n2)c1 [MRK-740-NC]
- HEK293T cell growth, toxicity (in words) (HEK293T cells; 10 µM, 24 h of treatment): some toxicity
- HEK293T cytotoxicity (in words) (HEK293T cells; 10 µM, 4 days of treatment): cytotoxicity was observed
- Cell growth (Cell#) (HEK293T cells; HEK293, 2 day treatement, 1 µM): 131.284 % control and 117.713 % control and 90.9177 % control
- Cell growth (Cell#) (HEK293T cells; HEK293, 2 day treatement, 3 µM): 132.069 % control and 120.302 % control and 91.1588 % control
- Cell growth (Cell#) (HEK293T cells; HEK293, 2 day treatement, 5 µM): 115.543 % control and 108.951 % control and 80.3231 % control
- Cell growth (Cell#) (HEK293T cells; HEK293, 2 day treatement, 10 µM): 46.5996 % control and 35.6574 % control and 30.4049 % control
- Cell growth (Cell#) (HEK293T cells; HEK293, 4 day treatement, 0.3 µM): 101.286 % control and 102.18 % control and 103.656 % control
- Cell growth (Cell#) (HEK293T cells; HEK293, 4 day treatement, 1 µM): 105.145 % control and 104.341 % control and 101.342 % control
- Cell growth (Cell#) (HEK293T cells; HEK293, 4 day treatement, 3 µM): 105.432 % control and 102.893 % control and 103.306 % control
- Cell growth (Cell#) (HEK293T cells; HEK293, 4 day treatement, 10 µM): 42.1082 % control and 39.7636 % control and 39.5419 % control
- Tm of PRDM9 in cells (NALTSA) ([1]; 10 µM compound, 0.1% DMSO, 1 h, DMSO control Tm 52 ± 0.3 °C): 51.6 ± 0.3 °C
- ∆Tm (°C) ([1]; Fig. 5b, replicates): 0.2175 °C and -0.9409 °C and -0.4232 °C
- Normalized_Signal ([1]; Temperature 41.9 °C): 1
- Normalized_Signal ([1]; Temperature 42.4 °C): 0.9008 and 0.9609 and 1.092
- Normalized_Signal ([1]; Temperature 43.6 °C): 0.8855 and 0.9556 and 0.9997
- Normalized_Signal ([1]; Temperature 45.5 °C): 0.873 and 0.8101 and 0.9461
- Normalized_Signal ([1]; Temperature 47.8 °C): 0.7977 and 0.6572 and 0.8375
- Normalized_Signal ([1]; Temperature 50.4 °C): 0.6003 and 0.5454 and 0.5984
- Normalized_Signal ([1]; Temperature 53.1 °C): 0.5018 and 0.4469 and 0.4089
- Normalized_Signal ([1]; Temperature 55.8 °C): 0.3624 and 0.3667 and 0.3326
- Normalized_Signal ([1]; Temperature 58.1 °C): 0.3387 and 0.2885 and 0.2383
- Normalized_Signal ([1]; Temperature 60.1 °C): 0.2284 and 0.1546 and 0.1556
- Normalized_Signal ([1]; Temperature 61.5 °C): 0.2018 and 0.1276 and 0.1034
- Normalized_Signal ([1]; Temperature 62.1 °C): 0.1991 and 0.1124 and 0.111
- PRDM7 inhibition (in words) (PRDM7): no significant PRDM7 inhibition
- PRDM7-Activity %, single experiments (PRDM7; 0.195312 µM compound, 0.195312 µM): 100.2% and 97.4%
- activity at 0.195312 µM (PRDM7; 0.195312 µM compound, read-out: PRDM7-Activity %, Average (n=3)): 99.4%
- activity at 0.195312 µM (PRDM7; 0.195312 µM compound, read-out: PRDM7-Activity %, single experiments): 101%
- PRDM7-Activity %, single experiments (PRDM7; 0.390625 µM compound, 0.390625 µM): 100.3% and 102.2%
- activity at 0.390625 µM (PRDM7; 0.390625 µM compound, read-out: PRDM7-Activity %, Average (n=3)): 102%
- activity at 0.390625 µM (PRDM7; 0.390625 µM compound, read-out: PRDM7-Activity %, single experiments): 104%
- PRDM7-Activity %, single experiments (PRDM7; 0.78125 µM compound, 0.78125 µM): 94.78% and 94.12%
- activity at 0.78125 µM (PRDM7; 0.78125 µM compound, read-out: PRDM7-Activity %, Average (n=3)): 92.2%
- activity at 0.78125 µM (PRDM7; 0.78125 µM compound, read-out: PRDM7-Activity %, single experiments): 87.6%
- PRDM7-Activity %, single experiments (PRDM7; 1.5625 µM compound, 1.5625 µM): 107.5% and 100.6%
- activity at 1.5625 µM (PRDM7; 1.5625 µM compound, read-out: PRDM7-Activity %, Average (n=3)): 102%
- activity at 1.5625 µM (PRDM7; 1.5625 µM compound, read-out: PRDM7-Activity %, single experiments): 98.2%
- PRDM7-Activity %, single experiments (PRDM7; 3.125 µM compound, 3.125 µM): 102.8% and 99.77%
- activity at 3.125 µM (PRDM7; 3.125 µM compound, read-out: PRDM7-Activity %, Average (n=3)): 97.8%
- activity at 3.125 µM (PRDM7; 3.125 µM compound, read-out: PRDM7-Activity %, single experiments): 90.9%
- PRDM7-Activity %, single experiments (PRDM7; 6.25 µM compound, 6.25 µM): 83.67% and 87.1%
- activity at 6.25 µM (PRDM7; 6.25 µM compound, read-out: PRDM7-Activity %, Average (n=3)): 90.6%
- activity at 6.25 µM (PRDM7; 6.25 µM compound, read-out: PRDM7-Activity %, single experiments): 101%
- PRDM7-Activity %, single experiments (PRDM7; 12.5 µM compound, 12.5 µM): 102.7% and 91.72%
- activity at 12.5 µM (PRDM7; 12.5 µM compound, read-out: PRDM7-Activity %, Average (n=3)): 94.2%
- activity at 12.5 µM (PRDM7; 12.5 µM compound, read-out: PRDM7-Activity %, single experiments): 88.2%
- PRDM7-Activity %, single experiments (PRDM7; 25 µM compound, 25 µM): 99.4% and 100.5%
- activity at 25 µM (PRDM7; 25 µM compound, read-out: PRDM7-Activity %, Average (n=3)): 101%
- activity at 25 µM (PRDM7; 25 µM compound, read-out: PRDM7-Activity %, single experiments): 105%
- PRDM7-Activity %, single experiments (PRDM7; 50 µM compound, 50 µM): 93.21% and 92.53%
- activity at 50 µM (PRDM7; 50 µM compound, read-out: PRDM7-Activity %, Average (n=3)): 93%
- activity at 50 µM (PRDM7; 50 µM compound, read-out: PRDM7-Activity %, single experiments): 93.3%
- PRDM7-Activity %, single experiments (PRDM7; 100 µM compound, 100 µM): 98.05% and 87.79%
- activity at 100 µM (PRDM7; 100 µM compound, read-out: PRDM7-Activity %, Average (n=3)): 89.8%
- activity at 100 µM (PRDM7; 100 µM compound, read-out: PRDM7-Activity %, single experiments): 83.5%
- PRDM7-Activity %, single experiments (PRDM7; 200 µM compound, 200 µM): 98.85% and 73.14% and 89.14%
- activity at 200 µM (PRDM7; 200 µM compound, read-out: PRDM7-Activity %, Average (n=3)): 87%
